Columns and labels:
[1] = tested on: PARP-1 activation; assay: Live-cell luminescence assay with PAR-T NanoLuc, UV-induced PARP-1 activation in MDA-MB-231-Luc cells; type: cell-based, human; conditions: for time-dependent, UV-mediated increase in PAR-T NanoLuc signal (PARP-1 activation): time course after UV radiation, 20 μM for 2 hr prior to UV
Method: Each point in the graph represents the mean±SEM of the relative levels of luminescence from PAR-T NanoLuc normalized to full Nano luciferase (n=3).
FIG. 11B provides quantitative analysis of Western blot analysis and bioluminescence imaging (shown in FIG. 4B) of 231-PAR-T NanoLuc cells treated with 20 μM Niraparib or 20 μM PARG inhibitor for 2 hr prior to UV radiation. Each bar in the graph represents the mean±SEM of the relative intensities (n=3, one-way ANOVA, *p<0.05, **p<0.001, and ***p<0.0001; ns=not significant).
(§1) Cells were treated with various inhibitors as described herein. For inhibition of nuclear PARPs, cells were treated with PJ-34 ([…]; Enzo, ALX-270) or Olaparib (20 µM; MedChem Express, HY-10162) for 2 hours. For inhibition of PARG, cells were treated with PDD 00017273 (20 µM; MedChem Express, HY-108360) for 2 hours. For UV-induced DNA damage, the cells were harvested 15 minutes after treatment with 50 mJ/cm2 UV irradiation.
DNA damaging agents such as UV irradiation and y irradiation activate PARP-1 and cause PARylation of itself and other DNA damage repair proteins that are recruited to the damage sites. […] MDA-MB-231-Luc cells were subjected to doxycycline-induced expression of PAR-T, and then treated UV radiation. […] In a similar manner, a time course of UV-mediated PARP-1 activation using live cell luminescence assay with the PAR-T NanoLuc sensor was performed. The MDA-MB-231 cells were subjected to Dox-induced expression of PAR-T NanoLuc or intact Nano luciferase and then exposed the cells to UV radiation.
Next, a set of assays was performed to compare the performance of the PAR-T sensors to conventional PAR detection reagents (WWE-Fc and PAR antibody) in a variety of assays. The following assays were compared (1) Western blotting with WWE-Fc versus fluorescence assay with PAR-T ddGFP, which were performed in conjunction with ARH3-mediated degradation of PAR in vitro (FIG. 11A); (2) Western blotting with WWE-Fc versus live-cell luciferase assay using PAR-T NanoLuc, which were performed in conjunction with UV-induced DNA damage in MDA-MB-231 cells (FIG. 11B); (3) enzyme-linked immunosorbent assay (ELISA) with PAR antibody versus fluorescence assay with PAR-T ddGFP, which were performed using immobilized PAR (FIG. 11C); and (4) immunofluorescence with WWE-Fc versus live-cell imaging using PAR-T ddGFP, which were performed using H2O2-mediated PARP-1 activation in 293T cells (FIG. 11D and FIG. 11E).

[2] = tested on: PARylation; assay: Live cell imaging of 3D cancer spheroids of MCF7 cells expressing PAR-T ddGFP; type: cell-based; conditions: for distribution of PARylation (PAR) throughout the spheroid: MCF7 3D cancer spheroids
Method: FIGS. 8C and 8D provides representative images (8C) and quantification (8D) of Z-projections of cancer spheroids formed using MCF-7 cells subjected to Dox-induced expression of the PAR-T ddGFP. The spheroids were treated with 20 µM Niraparib and live-cell imaging was performed at the indicated times. (Left) The spheroids were divided into ‘outer’ and ‘core’ sections for quantification as indicated by the white circles. (Right) Enlargement of the indicated areas from the left panels (yellow, core; pink, outer) as indicated.
Cancers are heterogenous tissues with spatial variation in nutrient availability, and stress. Since PARylation is enhanced by stressors such as DNA damage, another experiment tested whether there was any spatial variation in PARylation levels. Live cell imaging was performed in 3D cancer spheroids using MCF7 cells expressing the WWE based PAR-T sensors. […] A time course of Niraparib treatment in 3D cancer spheroids was performed to visualize spatio-temporal changes in PAR levels over time.

[3] = tested on: PAR accumulation; assay: Time course of PAR-T NanoLuc bioluminescence of breast cancer cells injected into mice; type: in vivo, C57/BL6 mice; conditions: 24-hr time course post injection
Source text: FIGS. 5D to 5E show analysis of a time course of bioluminescence imaging of 231-PAR-T NanoLuc cells transplanted into mice and treated with PARG inhibitor. Bioluminescence imaging (5D) with the region of interest expanded (5E). Each point in the graph in (5F) represents the mean±SEM of the relative levels of luminescence of NanoLuc of PAR-T NanoLuc (n=4).
PAR accumulation in breast cancer cells injected into C57/BL6 mice without establishing xenograft tumors over a 24-hr time course post injection, with or without PARG inhibitor treatment (FIG. 5D, FIG. 5E and FIG. 5F) was measured. PAR accumulation was readily detected in the breast cancer cells injected into the mice in the absence of treatment.

[4] = tested on: PARylation; assay: Recombinant PAR-T sensors incubated with lysates from treated Hela cells; type: cell-based
Method: as §1
Cells were cultured and treated as described above before the preparation of cell extracts. […]
Dimerization-dependent GFP is a genetically encoded sensor that was initially developed to study protein interactions. In this system, a pair of a quenched GFP (ddGFPA) and a non-fluorogenic GFP (ddGFPB) form a heterodimer that can result in improved fluorescence. In this example, a ddGFP-based fluorescence sensor (fluorescent PAR-Trackers or PAR-T) was designed to allow for live cell imaging, with high signal-noise ratio. To achieve this, the various ADPR reader domains (ARBDs) were fused to ddGFP-A/B and purified as recombinant proteins (FIG. 1A, FIG. 1B, FIG. 6A). […] Similarly, degradation of PAR chains by ARH3 was detected in a time (FIG. 1F and FIG. 1G) and dose (FIG. 6H) dependent way. […]

[5] = tested on: PARylation; assay: PAR-T luminescence in MDA-MB-231-luc xenograft tumors; type: in vivo; conditions: xenograft tumors in mice
Method: In the next experiment, the utility of luminescent PAR-T sensor to measure the levels of PARylation in vivo was tested. Xenograft tumors were established using the MDA-MB-231-luc cells the expression of PAR-T was induced by doxycycline (FIG. 5A). […] The luminescence from PAR-T was normalized to the firefly luminescence to confidently measure the differences in PARylation, while accounting for the variability in tumor sizes.

Molecule | decrease in PAR-T NanoLuc signal ([1]; UV-treated cells pre-treated with compound, versus basal) | decrease in PAR-T NanoLuc signal ([1]; basal (-UV) conditions, 20 μM, 2 hr) [%] | time-dependent, UV-mediated increase in PAR-T NanoLuc signal (PARP-1 activation) [1] | distribution of PARylation (PAR) throughout the spheroid [2] | PAR levels in cells at the core versus outer layer of the spheroid ([2]; time course, 20 µM Niraparib) | distribution of PARylation (PAR) throughout the spheroid ([2]; WWE based PAR-T sensors, 20 uM Niraparib) | luminescence from PAR-T NanoLuc [3] | PAR-T luminescence ([1]; UV radiation of treated cells) | fluorescence of recombinant PAR-T sensors with cell lysates ([4]; lysates from cells treated with both H2O2 and PARG inhibitor) | fluorescence of recombinant PAR-T sensors with cell lysates ([4]; lysates from treated Hela cells) | PARylation detected by PAR-T luminescence normalized to firefly luminescence [5]
NC(=O)c1cccc2cn(-c3ccc([C@@H]4CCCNC4)cc3)nc12 [Niraparib] | greater | 50 | but not in Niraparib-treated cells | inhibited | relatively resistant | – | – | – | – | – | –
O=C(c1cc(Cc2n[nH]c(=O)c3ccccc23)ccc1F)N1CCN(C(=O)C2CC2)CC1 [olaparib, Olaparib] | – | – | – | – | – | inhibited | – | – | – | – | –
PDD 00017273 [PARG inhibitor] | – | – | more spontaneous | – | – | – | increased significantly by 6 hr and then diminished by 24 hr | enhanced PAR-T luminescence | pronounced increase in fluorescence | increase in fluorescence | increase in PARylation

— patent US20240252689A1, “POLY-ADP RIBOSE (PAR) TRACKER OPTIMIZED SPLIT-PROTEIN REASSEMBLY PAR DETECTION REAGENTS” (THE BOARD OF REGENTS OF THE UNIVERSITY OF TEXAS SYSTEM, priority 2021, published 2024)
